Values of other authors in US4847261A, “Alkoxy cycloalkanol esters of dihydrolysergic acid having peripheral serotonin antagonists properties” (Eli Lilly and Company, priority 1988, dated 1989).

What was measured:
5HT2 receptors [1] = details: in words; mediated by 5HT2 receptors; cited from earlier work
5HT2 receptors [2] = details: in words; cited from earlier work

Structure (SMILES): CC(O)C(C)OC(=O)[C@@H]1C[C@@H]2c3cccc4c3c(cn4C(C)C)C[C@H]2N(C)C1 (stereo partly drawn) [LY53857, 1-isopropyl-6-methyl-8β-(1-methyl-2-hydroxy)propoxycarbonyl-5R-ergoline]
- antagonism of vascular contraction to serotonin (5HT2 receptors [1]): potent antagonist
- peripheral serotonin antagonist activity among Garbrecht compounds (5HT2 receptors [2]): most active peripheral serotonin antagonist
